Where “and” joins values, the source holds several entries; their conditions need not be identical. Equal values may be shown once. HELM strings list units from the 5' end as sugar, base in round brackets, then linkage (d deoxyribose, r ribose, m 2'-O-methyl, p phosphodiester). Strings are as the collection lists them, not checked against the first reports. ss, as = sense and antisense strand; [lna] = locked nucleic acid (LNA); [una] = unlocked nucleic acid; [hna] = hexitol nucleic acid; [fl2r] = 2'-fluoro
Conditions: siRNA
Also: test system not given here.

Substance	target mRNA knockdown
RNA1{[hna](G)p.[hna](A)p.[hna](C)p.r(G)p.r(U)p.r(A)p.r(A)p.r(A)p.r(C)p.r(G)p.r(G)p.r(C)p.r(C)p.r(A)p.r(C)p.r(A)p.r(A)p.[hna](G)p.[hna](U)p.[hna](U)p.d(T)}|RNA2{r(A)p.r(C)p.r(U)p.r(U)p.r(G)p.r(U)p.r(G)p.r(G)p.r(C)p.r(C)p.r(G)p.r(U)p.r(U)p.r(U)p.r(A)p.r(C)p.r(G)p.r(U)p.r(C)p.r(G)p.r(C)}$$$RNA1{StrandType:ss}|RNA2{StrandType:as}$	89%
RNA1{r(A)p.r(A)p.r(A)p.r(C)p.r(C)p.r(C)p.r(C)p.[fl2r](U)p.r(A)p.r(G)p.r(A)p.r(G)p.r(G)p.r(G)p.[fl2r](C)p.r(A)p.r(A)p.r(G)p.r(U)p.r(T)p.r(T)}|RNA2{r(A)p.r(C)p.r(U)p.r(U)p.r(G)p.r(C)p.r(C)p.r(C)p.r(U)p.r(C)p.r(U)p.r(A)p.r(G)p.r(G)p.r(G)p.r(G)p.r(U)p.r(U)p.r(U)p.r(T)p.r(T)}$$$RNA1{StrandType:ss}|RNA2{StrandType:as}$	83%
RNA1{r(U)p.r(G)p.r(A)p.r(A)p.r(U)p.r(C)p.r(A)p.r(G)p.r(A)p.r(A)p.r(G)p.r(A)p.r(U)p.r(G)p.r(A)p.r(A)p.r(G)p.r(U)p.r(C)p.r(A)p.r(A)}|RNA2{[una](G)p.r(A)p.r(C)p.r(U)p.r(U)p.r(C)p.r(A)p.r(U)p.r(C)p.r(U)p.r(U)p.r(C)p.r(U)p.r(G)p.r(A)p.r(U)p.r(U)p.r(C)p.r(A)p.r(A)p.r(G)}$$$RNA1{StrandType:ss}|RNA2{StrandType:as}$	94% and 92%
RNA1{m(A)p.m(A)p.m(G)p.m(G)p.m(A)p.m(G)p.m(A)p.m(U)p.m(C)p.m(A)p.m(A)p.m(C)p.m(A)p.m(U)p.m(U)p.m(U)p.m(U)p.m(C)p.m(A)p.r(T)p.r(T)}|RNA2{m(U)p.r(G)p.r(A)p.r(A)p.r(A)p.r(A)p.m(U)p.r(G)p.r(U)p.r(U)p.r(G)p.r(A)p.m(U)p.m(C)p.m(U)p.m(C)p.m(C)p.m(U)p.m(U)p.r(T)p.r(T)}$$$RNA1{StrandType:ss}|RNA2{StrandType:as}$	29%
RNA1{r(G)p.r(A)p.m(C)p.r(A)p.r(A)p.r(G)p.r(G)p.r(G)p.r(A)p.r(A)p.r(G)p.r(G)p.r(U)p.m(U)p.r(A)p.r(G)p.r(C)p.r(C)p.r(U)p.r(T)p.r(T)}|RNA2{r(A)p.r(G)p.r(G)p.r(C)p.m(U)p.r(A)p.r(A)p.r(C)p.r(C)p.r(U)p.r(U)p.r(C)p.r(C)p.r(C)p.r(U)p.m(U)p.r(G)p.r(U)p.r(C)p.r(T)p.r(T)}$$$RNA1{StrandType:ss}|RNA2{StrandType:as}$	68%
RNA1{m(G)p.r(G)p.m(A)p.r(A)p.m(G)p.r(U)p.m(A)p.r(A)p.m(G)p.r(G)p.m(A)p.r(C)p.m(C)p.r(A)p.m(G)p.r(A)p.m(G)p.r(A)p.m(C)p.r(T)p.r(T)}|RNA2{m(G)p.r(U)p.r(C)p.r(U)p.r(C)p.r(U)p.m(G)p.m(G)p.r(U)p.r(C)p.r(C)p.r(U)p.r(U)p.r(A)p.r(C)p.r(U)p.r(U)p.r(C)p.r(C)p.r(T)p.r(T)}$$$RNA1{StrandType:ss}|RNA2{StrandType:as}$	23%
RNA1{m(U)p.r(C)p.m(U)p.r(A)p.m(C)p.r(A)p.m(C)p.r(C)p.m(G)p.r(C)p.m(G)p.r(C)p.m(C)p.r(C)p.m(C)p.r(C)p.m(C)p.r(U)p.m(C)p.r(T)p.r(T)}|RNA2{r(G)p.r(A)p.r(G)p.r(G)p.r(G)p.r(G)p.r(G)p.r(G)p.r(C)p.r(G)p.r(C)p.r(G)p.r(G)p.r(U)p.r(G)p.r(U)p.r(A)p.r(G)p.r(A)p.r(T)p.r(T)}$$$RNA1{StrandType:ss}|RNA2{StrandType:as}$	39%
RNA1{r(C)p.r(G)p.r(G)p.r(G)p.r(U)p.r(A)p.r(C)p.r(G)p.r(A)p.r(G)p.r(C)p.r(C)p.r(G)p.r(G)p.r(A)p.r(A)p.r(C)p.r(C)p.r(U)p.r(T)p.r(T)}|RNA2{r(A)p.r(G)p.r(G)p.r(U)p.r(U)p.r(C)p.r(C)p.r(G)p.r(G)p.r(C)p.r(U)p.r(C)p.r(G)p.[fl2r](U)p.r(A)p.r(C)p.r(C)p.r(C)p.r(G)p.r(T)p.r(T)}$$$RNA1{StrandType:ss}|RNA2{StrandType:as}$	69%
RNA1{r(G)p.[fl2r](C)p.r(A)p.r(G)p.[fl2r](C)p.r(A)p.[fl2r](C)p.r(G)p.r(A)p.[fl2r](C)p.[fl2r](U)p.[fl2r](U)p.[fl2r](C)p.[fl2r](U)p.[fl2r](U)p.[fl2r](C)p.r(A)p.r(A)p.r(G)p.r(T)p.r(T)}|RNA2{r(C)p.r(U)p.r(U)p.r(G)p.r(A)p.r(A)p.r(G)p.r(A)p.r(A)p.r(G)p.r(U)p.r(C)p.r(G)p.r(U)p.r(G)p.r(C)p.r(U)p.r(G)p.r(C)p.r(T)p.r(T)}$$$RNA1{StrandType:ss}|RNA2{StrandType:as}$	92%
RNA1{r(G)p.r(A)p.r(G)p.r(G)p.r(A)p.r(A)p.r(G)p.r(A)p.m(U)p.r(G)p.r(A)p.r(G)p.r(U)p.r(U)p.r(G)p.r(U)p.r(A)p.r(C)p.r(C)p.r(T)p.r(T)}|RNA2{r(G)p.r(G)p.r(U)p.r(A)p.m(C)p.r(A)p.r(A)p.r(C)p.r(U)p.m(C)p.r(A)p.r(U)p.r(C)p.r(U)p.r(U)p.r(C)p.r(C)p.r(U)p.r(C)p.r(T)p.r(T)}$$$RNA1{StrandType:ss}|RNA2{StrandType:as}$	77%
RNA1{r(A)p.r(A)p.r(C)p.r(U)p.r(C)p.m(U)p.r(A)p.r(C)p.r(U)p.r(G)p.r(U)p.r(G)p.r(G)p.r(A)p.r(G)p.r(U)p.r(C)p.r(G)p.r(G)p.r(T)p.r(T)}|RNA2{r(C)p.r(C)p.r(G)p.r(A)p.r(C)p.r(U)p.r(C)p.r(C)p.r(A)p.r(C)p.r(A)p.r(G)p.m(U)p.r(A)p.r(G)p.r(A)p.r(G)p.r(U)p.r(U)p.r(T)p.r(T)}$$$RNA1{StrandType:ss}|RNA2{StrandType:as}$	69%
RNA1{r(A)p.r(C)p.r(G)p.r(U)p.m(C)p.r(A)p.r(C)p.r(C)p.r(G)p.r(A)p.r(G)p.r(G)p.r(A)p.r(G)p.r(A)p.r(A)p.r(G)p.r(U)p.r(A)p.r(T)p.r(T)}|RNA2{m(U)p.r(A)p.r(C)p.r(U)p.r(U)p.r(C)p.r(U)p.r(C)p.r(C)p.r(U)p.r(C)p.r(G)p.r(G)p.m(U)p.r(G)p.r(A)p.r(C)p.r(G)p.r(U)p.r(T)p.r(T)}$$$RNA1{StrandType:ss}|RNA2{StrandType:as}$	80%
RNA1{[fl2r](C)p.r(U)p.[fl2r](G)p.r(A)p.[fl2r](C)p.r(C)p.[fl2r](G)p.r(G)p.[fl2r](A)p.r(A)p.[fl2r](G)p.r(C)p.[fl2r](G)p.r(C)p.[fl2r](U)p.r(U)p.[fl2r](A)p.r(A)p.[fl2r](A)p.r(T)p.r(T)}|RNA2{r(U)p.r(U)p.r(U)p.[fl2r](A)p.[fl2r](A)p.r(G)p.r(C)p.r(G)p.r(C)p.r(U)p.r(U)p.r(C)p.r(C)p.r(G)p.r(G)p.r(U)p.r(C)p.[fl2r](A)p.r(G)p.r(T)p.r(T)}$$$RNA1{StrandType:ss}|RNA2{StrandType:as}$	59%
RNA1{r(A)p.r(A)p.r(G)p.r(G)p.r(A)p.r(A)p.r(C)p.r(G)p.r(G)p.r(G)p.r(G)p.r(A)p.r(C)p.r(A)p.r(C)p.r(U)p.r(U)p.r(A)p.r(C)p.r(T)p.r(T)}|RNA2{r(G)p.m(U)p.r(A)p.r(A)p.r(G)p.r(U)p.r(G)p.r(U)p.r(C)p.r(C)p.r(C)p.r(C)p.r(G)p.r(U)p.r(U)p.r(C)p.r(C)p.r(U)p.r(U)p.r(T)p.r(T)}$$$RNA1{StrandType:ss}|RNA2{StrandType:as}$	38%
RNA1{r(U)p.m(U)p.r(G)p.r(G)p.r(G)p.r(G)p.r(A)p.r(A)p.r(G)p.r(C)p.r(G)p.r(G)p.r(C)p.r(C)p.r(G)p.r(G)p.r(C)p.r(G)p.r(G)p.r(T)p.r(T)}|RNA2{r(C)p.r(C)p.r(G)p.r(C)p.r(C)p.r(G)p.r(G)p.r(C)p.r(C)p.r(G)p.r(C)p.r(U)p.r(U)p.r(C)p.r(C)p.r(C)p.m(C)p.r(A)p.r(A)p.r(T)p.r(T)}$$$RNA1{StrandType:ss}|RNA2{StrandType:as}$	82%
RNA1{[fl2r](G)p.r(C)p.[fl2r](C)p.r(U)p.[fl2r](C)p.r(U)p.[fl2r](C)p.r(U)p.[fl2r](A)p.r(U)p.[fl2r](C)p.r(C)p.[fl2r](U)p.r(U)p.[fl2r](A)p.r(G)p.[fl2r](C)p.r(U)p.r(U)p.r(T)p.r(T)}|RNA2{r(A)p.r(A)p.r(G)p.r(C)p.r(U)p.r(A)p.[fl2r](A)p.r(G)p.r(G)p.r(A)p.r(U)p.[fl2r](A)p.r(G)p.r(A)p.r(G)p.r(A)p.r(G)p.r(G)p.r(C)p.r(T)p.r(T)}$$$RNA1{StrandType:ss}|RNA2{StrandType:as}$	34%
RNA1{r(C)p.r(U)p.r(C)p.r(C)p.r(U)p.r(U)p.r(C)p.r(A)p.r(U)p.r(U)p.r(C)p.r(C)p.r(A)p.r(G)p.r(C)p.r(C)p.m(U)p.r(A)p.r(U)p.r(T)p.r(T)}|RNA2{r(A)p.m(U)p.r(A)p.r(G)p.r(G)p.r(C)p.r(U)p.r(G)p.r(G)p.r(A)p.r(A)p.r(U)p.r(G)p.r(A)p.r(A)p.r(G)p.r(G)p.r(A)p.r(G)p.r(T)p.r(T)}$$$RNA1{StrandType:ss}|RNA2{StrandType:as}$	81%
RNA1{r(G)p.r(A)p.r(A)p.r(G)p.r(A)p.r(G)p.r(C)p.r(C)p.m(U)p.r(A)p.m(C)p.r(A)p.m(C)p.r(A)p.r(A)p.r(C)p.r(C)p.r(C)p.r(U)p.r(T)p.r(T)}|RNA2{r(A)p.r(G)p.r(G)p.r(G)p.r(U)p.m(U)p.r(G)p.m(U)p.r(G)p.m(U)p.r(A)p.r(G)p.r(G)p.r(C)p.r(U)p.r(C)p.r(U)p.r(U)p.r(C)p.r(T)p.r(T)}$$$RNA1{StrandType:ss}|RNA2{StrandType:as}$	75%
RNA1{r(C)p.r(U)p.r(U)p.r(A)p.r(C)p.r(G)p.r(C)p.r(U)p.r(G)p.r(A)p.r(G)p.r(U)p.r(A)p.r(C)p.r(U)p.r(U)p.r(C)p.r(G)p.r(A)p.d(T)p.d(T)}|RNA2{r(U)p.r(C)p.r(G)p.r(A)p.r(A)p.r(G)p.r(U)p.r(A)p.r(C)p.r(U)p.r(C)p.r(A)p.r(G)p.r(C)p.r(G)p.r(U)p.r(A)p.r(A)p.r(G)p.[lna](T)p.[lna](T)}$$$RNA1{StrandType:ss}|RNA2{StrandType:as}$	92%
RNA1{r(U)p.r(C)p.m(U)p.r(A)p.m(C)p.r(A)p.r(C)p.r(C)p.r(G)p.m(C)p.r(G)p.r(C)p.m(C)p.r(C)p.r(C)p.r(C)p.r(C)p.r(U)p.r(C)p.r(T)p.r(T)}|RNA2{r(G)p.r(A)p.r(G)p.r(G)p.r(G)p.r(G)p.r(G)p.r(G)p.r(C)p.r(G)p.r(C)p.r(G)p.r(G)p.m(U)p.r(G)p.m(U)p.r(A)p.r(G)p.r(A)p.r(T)p.r(T)}$$$RNA1{StrandType:ss}|RNA2{StrandType:as}$	73%

Reference: the OligoGym collection
